# Measured values: patent US12721823B2, “Methods and compositions for treatment of low circulating testosterone conditions” (University of Florida Research Foundation, Inc., priority 2021, dated 2026)
# How the values were obtained:
# KCC2 = assay: Immunofluorescence of cell surface KCC2 expression in the PVN of the hypothalamus; type: in vivo, rat; conditions: G1 male rats; 1 h after last exposure on P60; vs control
# Description: Rats were anesthetized with sevoflurane and transcardially perfused with saline, followed by 4% paraformaldehyde (PFA) in 0.1 M phosphate buffer. The brains were collected and fixed in the 4% PFA overnight and then dehydrated in 30% sucrose solution in PBS at 4° C. for 2 days. The brains were cut into 18-um-thick coronal sections using a cryostat. After blocking with 10% norm goat serum for 1 h at room temperature, the slices were incubated with the primary antibody (rabbit anti-KCC2, 1:500; MilliporeSigma, Burlington, MA) in 10% norm goat serum at 4° C. overnight. After washing with PBS for 3×5 min, the slices were exposed to the secondary antibody, Alexafluor 549 goat anti-rabbit (Invitrogen, Carlsbad, CA). […] The immunofluorescence intensity of the KCC2-immunoreactive cells was measured using ImageJ software [National Institutes of Health (NIH)]. Three images from the PVN of the hypothalamus of each animal were taken and the average intensity values were calculated to use for statistical analysis. […] (FIGS. 2C-2F) Representative confocal images and quantitative analysis of the KCC2 immunoreactivity in the paraventricular nucleus (PVN) of the hypothalamus of the control and sevoflurane-exposed male (FIGS. 2C, 2E) and female (FIGS. 2D, 2F) rats. […]
# [1] = system: Sprague-Dawley F0 male rats; assay: Long-term serum testosterone after SEVO with or without surgery and TBI; type: in vivo, rat; conditions: young adult F0 male rats exposed to SEVO; FIG. 11A
# Description: The Sprague-Dawley F0 male rats in the TBI group had SEVO exposure for 40 min to conduct a craniectomy and injury hub implantation on P60. After 60 min of recovery, they were reanesthetized with SEVO for 3 min to induce moderate TBI using a midline fluid percussion injury (FPI) model. The TBI+SEVO group had additional exposure to SEVO for 3 h on P62, P64, and P66. These subsequent exposures to SEVO, which may be needed to treat accompanying conditions, such as orthopedic, abdominal, or thoracic injuries, were used to study whether the effects of SEVO, surgery, and TBI interact to induce their effects. The Sham group had all exposures to SEVO and craniectomy but not TBI. The SEVO-SEVO group had all exposures to SEVO only. The control group had none of these procedures, except being placed in a new cage for an equivalent duration and number of times. A subset of F0 male rats was sacrificed on P66 1 h after the last exposure to SEVO for 3 h or at equivalent timepoints to collect blood to study acute neuroendocrine effects (FIG. 11A). The serum corticosterone levels before and after physical restraint for 30 min were measured ion P140. Ten days after completing the in vivo studies, the same rats were sacrificed and trunk blood samples were collected to measure serum levels of testosterone.
smiles,measurement,setting,value
"FCOC(C(F)(F)F)C(F)(F)F [sevoflurane, 1,1,1,3,3,3-hexafluoro-2-(fluoromethoxy)propane]",cell surface KCC2 expression (KCC2 density) in the PVN of the hypothalamus,KCC2,reductions in KCC2 density
same,serum levels of testosterone,[1],long-term increase
